Patent US11149035B2, “Chemical compounds as H—PGDS inhibitors” (GlaxoSmithKline Intellectual Property Development Limited, priority 2017, dated 2021)

Biological target: T1, haematopoietic prostaglandin D synthase (H-PGDS) (Homo sapiens, UniProt O60760)
T1 construct: Full length human H-PGDS cDNA (Invitrogen Ultimate ORF IOH13026) was amplified by PCR; 6-His (N); TEV protease cleavage site (N); made in house; host or cells: E. coli BL21 (DE3*)
Test: H-PGDS RapidFire high throughput mass spectrometry assay (conversion of PGH2 to PGD2)
Assay type: biochemical
Conditions: 10 nM H-PGDS, PGH2 formed in situ by COX-2 from arachidonic acid; four parameter curve fit; read-out: Potency Range (mean pIC50) (converted)
Outline: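 His-tagged full-length human H-PGDS from E. coli converts PGH2, generated in situ at ~10 μM from arachidonic acid by FLAG-tagged human COX-2 from Sf9 cells. RapidFire SPE-triple quadrupole MS measures PGD2 against PGF2α as substrate surrogate; percent conversion is calculated.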

T1 sequence (O60760 whole entry): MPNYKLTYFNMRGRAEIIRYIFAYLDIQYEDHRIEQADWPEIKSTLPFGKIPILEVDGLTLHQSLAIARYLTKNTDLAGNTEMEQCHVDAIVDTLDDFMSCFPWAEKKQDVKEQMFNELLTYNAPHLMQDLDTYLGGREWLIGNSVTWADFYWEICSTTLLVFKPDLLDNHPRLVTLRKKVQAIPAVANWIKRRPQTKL

CC(C)(O)[C@H]1CC[C@H](NC(=O)c2cnc3nc(C4CC4)ccc3c2)CC1 [Example 21, 7-Cyclopropyl-N-((trans)-4-(2-hydroxypropan-2-yl)cyclohexyl)-1,8-naphthyridine-3-carboxamide]
IC50: < 10 nM
